Legend:
[1] = test system: Punta Toro virus (strain Adames)
in vitro [2] = conditions: human
SARSCoV = assay: organism not typed; type: cell-based; conditions: read-out: SARSCoV IC50
in vitro [3] = conditions: human; remark: listed apart in the source
PBM cells = conditions: human
HIV-1 (strain LAI) = type: cell-based

SMILES	Cytotoxicity in the Punta Toro virus assay (in words) [1]	IC50 (in vitro [2])	IC50 (SARSCoV)	IC50 (in vitro [3])	IC50 (PBM cells)	Anti-HIV activity (in words) (HIV-1 (strain LAI))
Nc1nc(O)c2[nH]cc([C@@H]3C=C(CO)[C@@H](O)[C@H]3O)c2n1 [Compound 2, (1′S,2′S,3′R)-9-(2′,3′-Dihydroxy-4′-hydroxymethyl-4′-cyclopenten-1′-yl)-deazaguanosine]	without any cytotoxicity	> 100 µM	> 100 µM	> 100 µM		
Cc1cn([C@H]2C[C@H](N=[N+]=[N-])[C@@H](CO)O2)c(=O)[nH]c1=O [AZT]					> 100 µM	
O=c1[nH]cc([C@@H]2C=C(CO)[C@@H](O)[C@H]2O)c(=O)[nH]1 [Compound 4, (1′S,2′S,3′R)-5-(2′,3′-Dihydroxy-4′-hydroxymethyl-4′-cyclopenten-1′-yl)uracil]	without any cytotoxicity	> 100 µM	> 100 µM	> 100 µM		
Nc1ncnc2c([C@@H]3C=C(CO)[C@@H](O)[C@H]3O)c[nH]c12 [Compound 1, (1′S,2′S,3′R)-4-Amino-7-(2′,3′-dihydroxy-4′-hydroxymethyl-4′-cyclopenten-1′-yl)-5H-pyrrolo[3,2-d]pyrimidine]						moderate anti-HIV activity
Nc1nc(=O)c([C@@H]2C=C(CO)[C@@H](O)[C@H]2O)c[nH]1 [Compound 3, (1′S,2′S,3′R)-5-(2′,3′-Dihydroxy-4′-hydroxymethyl-4′-cyclopenten-1′-yl)-isocytosine]		> 100 µM	> 100 µM	> 100 µM		

Reference: article PMC7127144 (Bioorganic & Medicinal Chemistry, 2006)
